In patent publication US8394825B2, “Compound” (Sterix Limited, priority 2007, dated 2013):

Tested on: DU145 cells
Assay: Antiproliferative assay in DU145 cells, WST-1 cell proliferation assay, 96 hours (GI50)
Assay type: cell-based
Conditions: 96 hours post-treatment, 50% growth inhibition, read-out: DU-145 GI50
Protocol: Antiproliferative assays. DU145 cells were seeded into 96 well microtiter plates (5000 cells/well) and treated with […] of compounds or with vehicle control. At 96 hours post-treatment, live cell counts were determined by WST-1 cell proliferation assay (Roche, Penzberg, Germany), as per manufacturer's instructions. Viability results were expressed as a percentage of mean control values resulting in the calculation of the 50% growth inhibition (GI50). All experiments were performed in triplicate.

SMILES	GI50 [µM]
COc1cc2c(cc1OS(N)(=O)=O)CCN(S(=O)(=O)c1ccccc1OC)C2=O [compound 204, 7-Methoxy-2-(2-methoxy-benzenesulfonyl)-6-O-sulfamoyl-3,4-dihydro-2H-isoquinolin-1-one]	> 100
COc1cccc(S(=O)(=O)N2CCc3cc(OS(N)(=O)=O)c(OC)cc3C2=O)c1 [compound 205, 7-Methoxy-2-(3-methoxy-benzenesulfonyl)-6-O-sulfamoyl-3,4-dihydro-2H-isoquinolin-1-one]	> 100
COc1ccc(S(=O)(=O)N2CCc3cc(OS(N)(=O)=O)c(OC)cc3C2=O)cc1 [compound 206, 7-Methoxy-2-(4-methoxy-benzenesulfonyl)-6-O-sulfamoyl-3,4-dihydro-2H-isoquinolin-1-one]	> 100
COc1cc2c(cc1OS(N)(=O)=O)CCN(S(=O)(=O)c1cccc(Cl)c1)C2=O [compound 207, 2-(3-Chloro-benzenesulfonyl)-7-methoxy-6-O-sulfamoyl-3,4-dihydro-2H-isoquinolin-1-one]	> 100
COc1cccc(CN2Cc3cc(OC)c(OS(N)(=O)=O)cc3CC2C)c1 (centres unmarked) [compound 220, 2-(3-Methoxybenzyl)-1,2,3,4-tetrahydro-7-methoxy-3-methylisoquinolin-6-O-sulfamate]	< 10
COc1cc(CN2Cc3cc(OC)c(OS(N)(=O)=O)cc3CC2C)cc(OC)c1 (centres unmarked) [compound 221, 2-(3,5-dimethoxy-benzyl)-7-methoxy-3-methyl-1,2,3,4-tetrahydro-isoquinolin-6-O-sulfamate]	< 10
COc1cc2c(cc1OS(N)(=O)=O)CC(C)N(Cc1cc(OC)c(OC)c(OC)c1)C2 (centres unmarked) [compound 222, 2-(3,4,5-Trimethoxybenzyl)-1,2,3,4-tetrahydro-7-methoxy-3-methylisoquinolin-6-O-sulfamate]	< 10

Same assay, conditions: 96 hours post-treatment, triplicate, read-out: DU-145 GI50

SMILES	GI50 [µM]
COc1cccc(C(=O)N2CCc3cc(OS(N)(=O)=O)c(OC)cc3C2=O)c1 [compound 149, 7-Methoxy-2-(3-methoxybenzoyl)-6-O-sulfamoyl-3,4-dihydro-2H-isoquinolin-1-one]	< 10
COc1cc(OC)cc(C(=O)N2CCc3cc(OS(N)(=O)=O)c(OC)cc3C2=O)c1 [compound 150, 2-(3,5-Dimethoxybenzoyl)-7-methoxy-6-O-sulfamoyl-3,4-dihydro-2H-isoquinolin-1-one]	< 10
COc1ccc(C(=O)N2CCc3cc(OS(N)(=O)=O)c(OC)cc3C2=O)cc1OC [compound 151, 2-(3,4-Dimethoxybenzoyl)-7-methoxy-6-O-sulfamoyl-3,4-dihydro-2H-isoquinolin-1-one]	< 10
COc1cc2c(cc1OS(N)(=O)=O)CCN(C(=O)c1cc(OC)c(OC)c(OC)c1)C2=O [compound 152, 7-methoxy-6-O-sulfamoyl-2-(3,4,5-trimethoxybenzoyl)-3,4-dihydro-2H-isoquinolin-1-one]	< 10
COc1cc2c(cc1OS(N)(=O)=O)CCN(C(=O)c1cccc(C#N)c1)C2=O [compound 153, 2-(3-Cyanobenzoyl)-7-methoxy-6-O-sulfamoyl-3,4-dihydro-2H-isoquinoline-1-one]	10 to 50
COc1ccc(CN2CCc3cc(OS(N)(=O)=O)c(OC)cc3C2)cc1 [compound 164, 7-Methoxy-2-(4-methoxybenzyl)-6-O-sulfamoyl-3,4-dihydro-2H-isoquinoline]	> 100
COc1ccccc1CN1CCc2cc(OS(N)(=O)=O)c(OC)cc2C1 [compound 165, 7-Methoxy-2-(2-methoxybenzyl)-6-O-sulfamoyl-3,4-dihydro-2H-isoquinoline]	> 100
COc1cccc(CN2CCc3cc(OS(N)(=O)=O)c(OC)cc3C2)c1 [compound 166, 7-Methoxy-2-(3-methoxybenzyl)-6-O-sulfamoyl-3,4-dihydro-2H-isoquinoline]	> 100
COc1cc(CN2CCc3cc(OS(N)(=O)=O)c(OC)cc3C2=O)cc(OC)c1 [compound 167, 2-(3,5-Dimethoxybenzyl)-7-methoxy-6-O-sulfamoyl-3,4-dihydro-2H-isoquinolin-1-one]	> 100
COc1cc2c(cc1OS(N)(=O)=O)CCN(Cc1cc(OC)c(OC)c(OC)c1)C2=O [compound 168, 7-methoxy-6-O-sulfamoyl-2-(3,4,5-trimethoxybenzyl)-3,4-dihydroisoquinolin-1 (2H)-one]	> 100
COc1cc2c(cc1OS(N)(=O)=O)CCN(S(=O)(=O)c1cccc(C#N)c1)C2 [compound 187, 2-(3-Cyano-benzenesulfonyl)-7-methoxy-6-O-sulfamoyl-1,2,3,4-tetrahydroisoquinoline]	> 100
COc1cccc(S(=O)(=O)N2CCc3cc(OS(N)(=O)=O)c(OC)cc3C2)c1 [compound 188, 7-Methoxy-2-(3-methoxy-benzenesulfonyl)-6-O-sulfamoyl-1,2,3,4-tetrahydroisoquinoline]	50 to 100
COc1cc2c(cc1OS(N)(=O)=O)CCN(S(=O)(=O)c1cccc(C(F)(F)F)c1)C2 [compound 189, 7-Methoxy-6-O-sulfamoyl-2-(3-trifluoromethyl-benzenesulfonyl)-1,2,3,4-tetrahydroisoquinoline]	10 to 50
COc1cc2c(cc1OS(N)(=O)=O)CCN(S(=O)(=O)c1cccc(Cl)c1)C2 [compound 190, 2-(3-Chloro-benzenesulfonyl)-7-methoxy-6-O-sulfamoyl-1,2,3,4-tetrahydroisoquinoline]	10 to 50
COc1cc2c(cc1OS(N)(=O)=O)CCN(S(=O)(=O)c1cccc(C)c1)C2 [compound 191, 7-Methoxy-6-O-sulfamoyl-2-(toluene-3-sulfonyl)-1,2,3,4-tetrahydroisoquinoline]	10 to 50
COc1cc2c(cc1OS(N)(=O)=O)CCN(S(=O)(=O)c1cccc(OC(F)(F)F)c1)C2 [compound 192, 7-Methoxy-6-O-sulfamoyl-2-(3-trifluoromethoxy-benzenesulfonyl)-1,2,3,4-tetrahydroisoquinoline]	50 to 100
COc1cc2c(cc1OS(N)(=O)=O)CCN(S(=O)(=O)c1ccccc1C#N)C2 [compound 193, 2-(2-Cyano-benzenesulfonyl)-7-methoxy-6-O-sulfamoyl-1,2,3,4-tetrahydroisoquinoline]	< 10
COc1cc2c(cc1OS(N)(=O)=O)CCN(S(=O)(=O)c1ccccc1OC)C2 [compound 194, 7-Methoxy-2-(2-methoxy-benzenesulfonyl)-6-O-sulfamoyl-1,2,3,4-tetrahydroisoquinoline]	> 100
COc1ccc(S(=O)(=O)N2CCc3cc(OS(N)(=O)=O)c(OC)cc3C2)cc1 [compound 195, 7-Methoxy-2-(4-methoxy-benzenesulfonyl)-6-O-sulfamoyl-1,2,3,4-tetrahydroisoquinoline]	> 100

Same assay, conditions: Homo sapiens, DU-145, 96 hours post-treatment, triplicate

SMILES	GI50 [µM]
COc1ccc(CN2CCc3cc(O[Si](C(C)C)(C(C)C)C(C)C)c(OC)cc3C2=O)cc1 [compound 154, 7-Methoxy-2-(4-methoxybenzyl)-6-(triisopropylsilyloxy)-3,4-dihydro-2H-isoquinolin-1-one]	> 100
COc1cc2c(cc1OCc1ccccc1)CCN(S(=O)(=O)c1cccc(Cl)c1)C2 [compound 173, 6-Benzyloxy-2-(3-chloro-benzenesulfonyl)-7-methoxy-1,2,3,4-tetrahydroisoquinoline]	> 100
COc1cc2c(cc1O[Si](C(C)C)(C(C)C)C(C)C)CCN(S(=O)(=O)c1cccc(C#N)c1)C2 [compound 174, 2-(3-Cyano-benzenesulfonyl)-6-triisopropylsilyloxy-7-methoxy-1,2,3,4-tetrahydroisoquinoline]	> 100
